Several values for one entry are separate records, joined by “and”; a condition that tells them apart may be missing. Equal entries are not always repeated. Where two headings read alike, the source gives them in different places.
Legend:
SH-SY5Y cells = assay: Cell proliferation of SH-SY5Y cells (MTS assay); type: cell-based, human; conditions: 30 uM, 24 hr
Protocol: SHSYSY cells were exposed for 24 hr to 30 uM concentration of (−)- and (+)-phenserine. After 24 hr cell proliferation was determined by MTS assay. *P,0.05, **p,0.01, and ***p,0.001 compared to control samples without drug.

SH-SY5Y neuronal cells = assay: Phenserine plus anti-inflammatory drug, oxidative stress and trophic effects in SH-SY5Y cells (MTS assay)
Protocol: Human SH-SY5Y neuronal cells were seeded in 96-well plates at a density of 1×10^5 cells per well and allowed to grow for 24 hr. […] […] At 18 hr thereafter a MTS assay was performed per the manufacturers protocol (Abcam, Cambridge, Mass.) to measure cell viability.
For example, instead of aspirin (as shown in FIG. 3A), an NSAID, naproxen, was used under the same experimental conditions at concentrations in FIGS. 3B-3D.

[1] = Plasma concentrations of phenserine and its metabolites in beagle dog plasma; type: in vivo; conditions: beagle, in vivo; for concentration at 1 h: Hour 1; for concentration at 2 h: Hour 2; for concentration at 3 h: Hour 3; for concentration at 4 h: Hour 4
[2] = Plasma concentrations of phenserine and its metabolites in human plasma; type: in vivo; conditions: both sexes, in vivo; for concentration at 1 h: Hour 1; for concentration at 2 h: Hour 2; for concentration at 3 h: Hour 3; for concentration at 4 h: Hour 4
Protocol: The relationship between pharmacokinetic and pharmacodynamics evaluated in FIG. 15 was evaluated in aged volunteers. A total of 32 subjects (60-80 years of age, 11 males/21 females) were screened and enrolled. All participants provided informed consent, the conduct of the study were approved and overseen by the local Review IRB.
For pharmacokinetic (blood concentrations of primary drug and select metabolites) a dose […] additionally was evaluated.
These were centrifuged within 15 min of collection, and stored in a freezer at −70° C. freezer in marked polypropylene tubes until analysis. Phenserine levels were quantified by liquid chromatography/mass spectrometry (LC/MS/MS). In brief, analyses were undertaken on Perkin-Elmer (PE, Norwalk, USA) high performance liquid chromatographic (HPLC) instrumentation. Compound separation was performed on a Phenomenex LUNA C18 column (5 μM, 2.0 mm×150 mm; Torrance, USA), with a Phenomenex guard column (2 mm×30 mm). The mobile phase was 60% acetonitrile (HPLC grade) plus 40% ammonium acetate (v/v) with a flow rate of 0.4 mL/min. […] Thereafter, 2 mL of tert-butyl methyl ether was added and the sample was mixed and flash frozen. The organic layer was decanted, dried under a stream of nitrogen and reconstituted into 250 μL of mobile phase. Of this, a 60 μL sample was then injected into the HPLC.

[3] = Estimated EC50/IC50 of phenserine and metabolites for pharmacological activity in brain
clinical = conditions: for t1/2 /Elim / Estimated Brain CMax: 15 mg immediate release dose; for Estimated Brain CMax: from plasma CMax and brain:plasma partitioning; for Cmax: human, in vivo, 15 mg
Text: FIGS. 33-34 depict two graphs from an Excel spreadsheet. FIG. 33 is a linear plot of plasma level vs time and FIG. 34 is a semi-log plot of plasma conc. vs time.

[4] = Plasma concentrations of phenserine and its metabolites in wistar rat plasma; conditions: in vivo; for concentration at 1 h: Hour 1; for concentration at 2 h: Hour 2
[5] = in vivo

| SMILES | concentration at 1 h [1] [ng/mL] | concentration at 2 h [1] [ng/mL] | concentration at 3 h [1] [ng/mL] | concentration at 4 h [1] [ng/mL] | concentration at 1 h [2] [ng/mL] | concentration at 2 h [2] [ng/mL] | concentration at 3 h [2] [ng/mL] | concentration at 4 h [2] [ng/mL] | Estimated EC50 [3] | t1/2 /Elim (clinical) [h] | Cmax (clinical) | concentration at 1 h [4] [ng/mL] | concentration at 2 h [4] [ng/mL] | brain:blood partition [5] | Estimated Brain CMax (clinical) | further results |
| --- | --- | --- | --- | --- | --- | --- | --- | --- | --- | --- | --- | --- | --- | --- | --- | --- |
| CN1CC[C@]2(C)c3cc(OC(=O)Nc4ccccc4)ccc3N(C)[C@H]12 [(+)-phenserine, reference compound] |  |  |  |  |  |  |  |  |  |  |  |  |  |  |  | cell proliferation (neurotrophic actions) (SH-SY5Y cells): increasing cellular proliferation |
| CC(=O)Oc1ccccc1C(=O)O [ASA, acetylsalicylic acid, reference compound] |  |  |  |  |  |  |  |  |  |  |  |  |  |  |  | oxidative stress-induced cellular death (cell viability) (SH-SY5Y neuronal cells; ASA 10^−5 M, (−)-Phen 10^−7 M, 10^−6 M, H2O2 50 μM, 18 hr): no activity |
| C[C@@]12CCN[C@@H]1Nc1ccc(OC(=O)Nc3ccccc3)cc12 [N1,N8-bisnor-phenserine, (−)-N1, N8-bisnorphenylcarbamoyleseroline] | 235 | 220 | 428 | 351 | 22.5 | 14.5 | 7.62 | 6.55 | 100 NanoMolar | 0.53 to 1.29 | 22.5 ng/mL and 73.3 nM | 536 | 539 | approx. 1.3:1 |  | IC50 ([3]; BNPCE IC50+/−25, read-out: IC50 (estimated)): 22 nM; IC50 ([3]; pharmacological activity in brain, read-out: estimated IC50): 100 nM; Estimated Brain CMax (clinical; listed as N-1, N-8 BisNor P): 28.8 ng/ml and 95.0 nM |
| CN1c2ccc(OC(=O)Nc3ccccc3)cc2[C@]2(C)CCN[C@H]12 [N1-nor-phenserine, (−)-N1-norphenylcarbamoyleseroline] | 86.1 | 50.3 | 86.7 | 41.9 | 1.56 | 1.19 | 0.8 | 0.53 | 24-100 NanoMolar | 1.90 to 1.96 | 1.56 ng/mL and 4.8 nM | 37.6 | 26.2 | approx. 4:1 | 2.15 ng/ml and 6.6 nM | expected plasma levels (clinical; targeted 30 mg/d or 60 mg/d in sustained release formulation): > 1.0 ng/mL |
| CN1CC[C@@]2(C)c3cc(OC(=O)Nc4ccccc4)ccc3N[C@@H]12 [N8-nor-phensereine, (−)-N8-norphenylcarbamoyleseroline] | 33.4 | 28.2 | 9.06 | 7.88 | 11.2 | 7.38 | 4.28 | 3.61 | 24-100 NanoMolar | 1.51 to 1.76 | 11.2 ng/mL and 34.8 nM | 96.4 | 69.2 | approx. 6:1 | 17.7 ng/ml and 52.9 nM |  |
| COc1ccc2cc([C@H](C)C(=O)O)ccc2c1 [naproxen, reference compound] |  |  |  |  |  |  |  |  |  |  |  |  |  |  |  | tolerability by SH-SY5Y neuronal cells (SH-SY5Y neuronal cells; 10 nM to 100,000 nM): well tolerated; trophic actions (SH-SY5Y neuronal cells; 10 nM to 100,000 nM): does not show activity |
